The source of these data is patent publication US20240203290A1, “VITRO MODEL DEVICE FOR CORNEA BARRIER” (CFD Research Corporation, priority 2022, published 2024).

Type in all cases: cell-based
The test system of data set [1] is corneal barrier of the microfluidic in vitro cornea device (epithelial, fibroblast, endothelial triculture). Nature of the data set: FSS permeability of the in vitro cornea device after trypan blue exposure. The following applies: trypan blue injected into TFEp channel at 3 μL/min for 4 min, incubated at 37° C. for 15 min; then FSS injected into TFEp channel. The protocol:
(§1) In some embodiments, all channels of the device can be coated with human fibronectin to facilitate cellular attachment. For example, primary human corneal fibroblasts can be seeded on Day 0. Fibroblasts can be harvested, concentrated to 1×10^7 cells/mL and injected into the stromal chamber via a remote head syringe pump at 5 μL/min until cells are homogenously distributed. Devices can then be incubated at 37° C., 5% CO2 for 4 hours to allow for attachment. Media can be subsequently refreshed every 24 hours. Primary human corneal epithelial cells can be seeded into the TFEp circulation channel on Day 3. […]
(§2) Viability can be assessed on-chip as an endpoint for epithelial, fibroblast, and endothelial cells. Devices are prepared for viability quantitation by incubation with calcein AM and ethidium homodimer in PBS. After rinsing the cells with PBS, fluorescent images are taken via microscope, and the data was analyzed to determine cornea triculture viability (sec, FIG. 5A). […]
Following exposure, FSS can be injected into the TFEp channel and permeability assayed. […] Samples can be taken from cell-laden channels (individually or combined) and placed in a low volume, white walled […] plate for luminescence analysis using a plate reader. […] The increase in AK release in arbitrary luminescence units compares the toxic exposure of trypan blue to positive and negative controls. […]

The test system of data set [2] is cells of the microfluidic in vitro cornea device. Nature of the data set: Cytotoxicity by adenylate kinase release (luminescence) from cell-laden channels. The following applies: trypan blue exposure; compared with positive control (lysis buffer) and negative control (media only). How it is done:
as §1, §2
Following exposure, FSS can be injected into the TFEp channel and permeability assayed. […] Samples can be taken from cell-laden channels (individually or combined) and placed in a low volume, white walled […] plate for luminescence analysis using a plate reader. […] The increase in AK release in arbitrary luminescence units compares the toxic exposure of trypan blue to positive and negative controls.

Data set [3] concerns corneal barrier of the microfluidic in vitro cornea device. Description: Morphological observation of the chambers after trypan blue exposure. The following applies: trypan blue injected into TFEp channel at 3 μL/min for 4 min, incubated at 37° C. for 15 min; observed at any chamber.

As for `Cc1cc(-c2ccc(/N=N/c3c(S(=O)(=O)O)cc4cc(S(=O)(=O)O)cc(N)c4c3O)c(C)c2)ccc1/N=N/c1c(S(=O)(=O)O)cc2cc(S(=O)(=O)O)cc(N)c2c1O` [trypan blue], in data set [1], the “Permeability in trypan blue treated devices compared to controls” value is reported as 10 fold. For the same compound, the “Increase in adenylate kinase release” value in data set [2] is on record as 1.5 fold. Also, the “Morphological effects of exposure” value in data set [3] was “evidence of barrier degradation (e.g., cell death and detachment) and apoptosis”.
